Measured values: patent publication US20230240994A1, “MEDICAMENT-CONTAINING HOLLOW PARTICLE” (Sumitomo Pharma Co., Ltd., priority 2012, published 2023)
Structures can show the parent of a compound that is named as a salt.

Test: Particle size distribution by laser diffraction particle size analyzer (volume basis)
Type: physicochemical
Method: In the present invention, the “average particle size” means cumulative 50% particle size D50 in the volume based measurement of powder particles. Such average particle size is measured by a laser diffraction particle size analyzer (e.g., Particle Viewer manufactured by POWREX CORPORATION, or SALD-3000J manufactured by Shimadzu Corporation, or HELOS&RODOS manufactured by Sympatec GmbH) by volume basis.
The particle size distribution of medicament, polymer, other additive, a mixed powder of the medicament and other additive, and the obtained medicament-containing particle was measured by a laser diffraction particle size analyzer (manufactured by POWREX CORPORATION, Particle Viewer) or laser diffraction particle size analyzer (manufactured by Shimadzu Corporation, SAID-3000J) by volume basis.

[1] = starting material as used (medicament, polymer, other additive, mixed powder), volume basis
[2] = medicament used (raw material), laser diffraction SALD-3000J
[3] = micronized product of Compound A used in Comparative Example 3-2

Compound | particle size distribution D10 [1] [μm] | particle size distribution D50 [1] [μm] | particle size distribution D90 [1] [μm] | particle size distribution D10 [2] [μm] | particle size distribution D50 [2] [μm] | particle size distribution D90 [2] [μm] | particle size distribution D10 [3] [μm] | particle size distribution D50 [3] [μm] | particle size distribution D90 [3] [μm]
OC[C@H]1O[C@@H](O[C@H]2[C@H](O)[C@@H](O)C(O)O[C@@H]2CO)[C@H](O)[C@@H](O)[C@H]1O (stereo partly drawn) [lactose (Pharmatose 200M), lactose] | 4.0 | 48.7 | 129.0 | – | – | – | – | – | –
NS(=O)(=O)Cc1noc2ccccc12 [Compound A (D50: 9.9 μm)] | – | – | – | 1.2 | 9.9 | 42.9 | – | – | –
OC[C@@H](O)[C@@H](O)[C@H](O)[C@H](O)CO [D-mannitol (JM pulverized product), D-mannitol] | 0.5 | 2.0 | 4.2 | – | – | – | – | – | –
NS(=O)(=O)Cc1noc2ccccc12 [Compound A, 1,2-benzisoxazole-3-methanesulfonamide, reference compound] | 0.7 | 2.7 | 5.6 | 0.7 | 2.7 | 5.6 | 3.2 | 13.3 | 40.8
OC[C@@H](O)[C@@H](O)[C@H](O)[C@H](O)CO [D-mannitol (PEARLITOL 50C), D-mannitol] | 6.9 | 47.0 | 125.2 | – | – | – | – | – | –
Cl.O=C1[C@@H]2[C@H]3CC[C@H](C3)[C@@H]2C(=O)N1C[C@@H]1CCCC[C@H]1CN1CCN(c2nsc3ccccc23)CC1 [Compound B, (3aR,4S,7R,7aS)-2-{(1R,2R)-2-[4-(1,2-benzisothiazol-3-yl)piperazin-1-ylmethyl]cyclohexylmethyl}hexahydro-4,7-methano-2H-isoindole-1,3-dione hydrochloride, reference compound] | 0.5 | 1.5 | 3.3 | – | – | – | – | – | –
O=C([O-])[O-].[Mg+2] [magnesium carbonate (light), magnesium carbonate] | 0.9 | 4.0 | 10.6 | – | – | – | – | – | –

Further lines, results first:

particle size distribution D10 [1] [μm] | particle size distribution D50 [1] [μm] | particle size distribution D90 [1] [μm] | particle size distribution D10 [2] [μm] | particle size distribution D50 [2] [μm] | particle size distribution D90 [2] [μm] | particle size distribution D10 [3] [μm] | particle size distribution D50 [3] [μm] | particle size distribution D90 [3] [μm] | Compound
2.3 | 9.2 | 30.6 | – | – | – | – | – | – | CCOc1cc(N)c(Cl)cc1C(=O)NCC1CN(Cc2ccc(F)cc2)CCO1 (stereo not drawn) [mosapride citrate, reference compound]
1.3 | 4.6 | 12.7 | – | – | – | – | – | – | Nc1ccc(O)c(C(=O)O)c1 [Compound D, 5-amino-2-hydroxybenzoic acid, reference compound]
1.3 | 3.2 | 6.3 | – | – | – | – | – | – | C[C@@H](c1ccc(-c2ccccc2)c(F)c1)c1cc(N=C(N)N2CCOCC2)on1 [Compound E, 3-[(1S)-1-(2-fluorobiphenyl-4-yl)ethyl]-5-{[amino(morpholin-4-yl)methylene]amino}isoxazole]
0.8 | 3.1 | 8.1 | – | – | – | – | – | – | COc1ccc2c(c1)c(CC(=O)O)c(C)n2C(=O)c1ccc(Cl)cc1 [Compound G, 1-(4-chlorobenzoyl)-5-methoxy-2-methyl-1-H-indole-3-acetic acid, reference compound]
– | – | – | 1.0 | 6.9 | 26.8 | – | – | – | NS(=O)(=O)Cc1noc2ccccc12 [Compound A (D50: 6.9 μm)]
2.8 | 11.6 | 46.1 | – | – | – | – | – | – | CC(=O)Nc1ccc(O)cc1 [acetaminophen, reference compound]
– | – | – | 0.7 | 2.7 | 5.6 | – | – | – | NS(=O)(=O)Cc1noc2ccccc12 [Compound A (D50: 2.7 μm)]
0.6 | 2.5 | 5.0 | – | – | – | – | – | – | COc1cccc(-c2nccc3[nH]c(=O)c(-c4noc(C)n4)cc23)c1 [Compound F, 5-(3-methoxyphenyl)-3-(5-methyl-1,2,4-oxadiazol-3-yl)-2-oxo-1,2-dihydro-1,6-naphthyridine]
